Results on 13 compounds are retold here after patent US8628771B2, “CA IX-specific inhibitors” (Institute of Virology Slovak Academy of Sciences, priority 2002, dated 2014).

The Ki is the dissociation constant of the complex between target and ligand, obtained from inhibition or displacement.

Where two headings read alike, the source gives them in different places.

Series [1] addresses T1, hCA II (Homo sapiens, UniProt P00918).
T1 construct: made in house; host or cells: Escherichia coli BL21 (DE3)
The experiment in a line: CA esterase activity assay, isozyme hCA II. The format is biochemical.
Protocol: Human CA I and CA II cDNAs were expressed in Escherichia coli strain BL21 (DE3) from the plasmids pACA/hCA I and pACA/hCA II described by Lindskog's group [54].
Non-enzymatic hydrolysis rates were always subtracted from the observed rates. […] Inhibitor and enzyme solutions were preincubated together for 10 min at room temperature prior to assay, in order to allow for the formation of the E-I complex. The inhibition constant KI was determined as described in references [44, 76].

Series [2] has as its target hCA IX (Homo sapiens, UniProt Q16790). Kind of series: CA CO2 hydrase activity assay, tumor-associated isozyme hCA IX.
Protocol: An SX.18MV-R Applied Photophysics stopped-flow instrument has been used for assaying the CA CO2 hydration activity assays [44]. […] Inhibitor and enzyme solutions were preincubated together for 10 min at room temperature prior to assay, in order to allow for the formation of the E-I complex.
For series [3], the system named is human red cells. To be noted: for [sulfonamide] in red blood cells, EI / [sulfonamide] in red blood cells, ES / [sulfonamide] in red blood cells, HPLC: human, 2 mM, pH 7.4.
In series [4] the target is T2, hCA I (Homo sapiens, UniProt P00915).
T2 construct: made in house; host or cells: Escherichia coli BL21 (DE3)
The experiment in a line: CA esterase activity assay, isozyme hCA I. The format is biochemical. Conditions: Table 3.

Series [5] addresses T3, bCA IV (Bos taurus, UniProt Q95323).
T3 construct: CA IV was isolated from bovine lung microsomes as described by Maren et al; from tissue; host or cells: bovine lung microsomes
T3 sequence (Q95323 19-284): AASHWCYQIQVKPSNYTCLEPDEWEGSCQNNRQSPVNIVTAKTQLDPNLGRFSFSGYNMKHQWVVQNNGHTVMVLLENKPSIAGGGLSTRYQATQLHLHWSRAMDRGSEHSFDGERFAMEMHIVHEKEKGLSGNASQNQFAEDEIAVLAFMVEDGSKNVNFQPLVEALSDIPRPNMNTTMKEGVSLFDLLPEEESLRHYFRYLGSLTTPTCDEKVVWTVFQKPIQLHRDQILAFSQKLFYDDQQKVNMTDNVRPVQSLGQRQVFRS
The experiment in a line: CA esterase activity assay, isozyme bCA IV. The format is biochemical, bovine. To be noted: Table 3.

Where [6] appears, read: Table 3, human (cloned) isozymes, esterase assay method, read-out: KI hCA II.
Setting [7] is: read-out: KI hCA IX, Table 3, catalytic domain of the human, cloned isozyme, CO2 hydrase assay method.
The mark [8] stands for this setting: human (cloned) isozymes, esterase assay method, read-out: KI hCA I.
[9] abbreviates: from bovine lung microsomes, esterase assay method, read-out: KI bCA IV.
[10] abbreviates: Tables 1 and 3, read-out: KI against CA II.
Where [11] appears, read: KI against CA IX, text discussion of Tables 1-3.

T2 sequence (P00915 whole entry): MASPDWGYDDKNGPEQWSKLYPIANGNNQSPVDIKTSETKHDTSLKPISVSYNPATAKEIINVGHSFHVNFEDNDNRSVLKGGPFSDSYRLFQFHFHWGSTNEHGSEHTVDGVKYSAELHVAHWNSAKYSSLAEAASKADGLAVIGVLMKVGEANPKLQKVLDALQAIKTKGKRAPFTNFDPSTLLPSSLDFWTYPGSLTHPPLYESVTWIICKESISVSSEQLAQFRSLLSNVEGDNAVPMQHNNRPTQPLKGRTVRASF

As to `Cc1cc(C)[n+](-c2ccc(S(=O)(=O)Nc3nnc(S(N)(=O)=O)s3)cc2)c(C)c1` [Compound 71, 1-N-[5-Sulfamoyl-1,3,4-thiadiazol-2-yl-(aminosulfonyl-4-phenyl)]-2,4,6-trimethyl-pyridinium perchlorate], the Ki in series [1] (setting [6]) is 0.26 nM; in series [1] (read-out: KI against CA II), 0.2 to 1.61 nM; in series [2], 3 to 9 nM; in series [2] (setting [7]), 3 nM; in series [4] (setting [8]) it was 4 nM; in series [5] (setting [9]), 2.1 nM. Moreover, the “times more effective than benzolamide in inhibiting CA IX” value in series [2] (ratio of KI values) is reported as around 13. The “amount detected within the blood red cells (membrane penetration)” value in series [3] is listed as “detected only in very small amounts”. Moreover, the results for the “[sulfonamide] in red blood cells, EI” value in series [3] (30 min) and in series [3] (60 min) were 0.5 µM and 0.3 µM, respectively. The “[sulfonamide] in red blood cells, ES” value in series [3] (30 min) and in series [3] (60 min) was 0.5 µM in each case. Moreover, the “[sulfonamide] in red blood cells, HPLC” value in series [3] (30 min) was determined as 0.3 µM; in series [3] (60 min), 0.4 µM.
With `CCCc1cc(-c2ccccc2)cc(CCC)[n+]1-c1ccc(S(=O)(=O)Nc2nnc(S(N)(=O)=O)s2)cc1` [Compound 77, 1-N-[5-Sulfamoyl-1,3,4-thiadiazol-2-yl-(aminosulfonyl-4-phenyl)]-2,6-di-n-propyl-4-phenylpyridinium perchlorate], the Ki in series [1] (setting [6]) is 3.45 nM; in series [1] (setting [10]), 3.13 to 5.96 nM; in series [2] it was 12 to 35 nM; in series [2] (setting [7]) it was 35 nM; in series [4] (setting [8]) it was 9 nM; in series [4] (read-out: KI against CA I), 7 to 12 nM. Besides, the Ki in series [5] (setting [9]) was 8.1 nM; in series [5] (read-out: KI against CA IV), 5.2 to 10.3 nM.
`CCCCc1cc(-c2ccccc2)cc(CCCC)[n+]1-c1ccc(S(=O)(=O)Nc2nnc(S(N)(=O)=O)s2)cc1` [Compound 78]: the Ki in series [1] (setting [6]) is 4.62 nM; in series [1] (setting [10]) it was 3.13 to 5.96 nM; in series [2] (setting [11]), 40 to 43 nM; in series [2] (setting [7]), 40 nM; in series [4] (setting [8]), 10 nM; in series [4] (read-out: KI against CA I) it was 7 to 12 nM. Besides, the Ki in series [5] (setting [9]) was 10.3 nM; in series [5] (read-out: KI against CA IV), 5.2 to 10.3 nM.
On to `CC(C)c1cc(-c2ccccc2)cc(C(C)C)[n+]1-c1ccc(S(=O)(=O)Nc2nnc(S(N)(=O)=O)s2)cc1` [Compound 79, 1-N-[5-Sulfamoyl-1,3,4-thiadiazol-2-yl-(aminosulfonyl-4-phenyl)]-2,6-di-isopropyl-4-phenylpyridinium perchlorate], for which the Ki was 1.61 nM in series [1] (setting [6]); 0.2 to 1.61 nM in series [1] (setting [10]); 12 to 35 nM in series [2] (setting [11]); 30 nM in series [2] (setting [7]); 5 nM in series [4] (setting [8]); 4.1 nM in series [5] (setting [9]).
Regarding `Cc1cc(-c2ccccc2)cc(-c2ccccc2)[n+]1-c1ccc(S(=O)(=O)Nc2nnc(S(N)(=O)=O)s2)cc1` [Compound 80, 1-N-[5-Sulfamoyl-1,3,4-thiadiazol-2-yl-(aminosulfonyl-4-phenyl)]-2-methyl-4,6-diphenylpyridinium perchlorate], the Ki in series [1] (setting [6]) was 1.21 nM; in series [1] (setting [10]), 0.2 to 1.61 nM; in series [2], 12 to 35 nM; in series [2] (setting [7]) it was 24 nM; in series [4] (setting [8]) it was 4 nM; in series [5] (setting [9]), 3 nM.
As to `CCc1cc(-c2ccccc2)cc(-c2ccccc2)[n+]1-c1ccc(S(=O)(=O)Nc2nnc(S(N)(=O)=O)s2)cc1` [Compound 81, 1-N-[5-Sulfamoyl-1,3,4-thiadiazol-2-yl-(aminosulfonyl-4-phenyl)]-2-ethyl-4,6-diphenylpyridinium perchlorate], the inhibitory constant (Ki) in series [1] (setting [6]) was 1.14 nM; in series [1] (read-out: KI against CA II), 0.2 to 1.61 nM; in series [2] (setting [11]), 12 to 35 nM; in series [2] (setting [7]) it was 29 nM; in series [4] (setting [8]), 5 nM; in series [5] (setting [9]), 3.8 nM.
As to `CCCc1cc(-c2ccccc2)cc(-c2ccccc2)[n+]1-c1ccc(S(=O)(=O)Nc2nnc(S(N)(=O)=O)s2)cc1` [Compound 82, 1-N-[5-Sulfamoyl-1,3,4-thiadiazol-2-yl-(aminosulfonyl-4-phenyl)]-2-n-propyl-4,6-diphenylpyridinium perchlorate], the Ki is 3.9 nM in series [1] (setting [6]); 3.13 to 5.96 nM in series [1] (setting [10]); 40 nM in series [2] (setting [7]); 8 nM in series [4] (setting [8]); 7 to 12 nM in series [4] (read-out: KI against CA I); 6 nM in series [5] (setting [9]). In addition, the inhibition constant Ki in series [5] (read-out: KI against CA IV) lay in the range of 5.2 to 10.3 nM.
Take `CC(C)c1cc(-c2ccccc2)cc(-c2ccccc2)[n+]1-c1ccc(S(=O)(=O)Nc2nnc(S(N)(=O)=O)s2)cc1` [Compound 83, 1-N-[5-Sulfamoyl-1,3,4-thiadiazol-2-yl-(aminosulfonyl-4-phenyl)]-2-iso-propyl-4,6-diphenylpyridinium perchlorate]: the inhibition constant (Ki) in series [1] (setting [6]) was 3.74 nM; in series [1] (setting [10]), 3.13 to 5.96 nM; in series [2] it was 12 to 35 nM; in series [2] (setting [7]), 32 nM; in series [4] (setting [8]), 6 nM; in series [5] (setting [9]) it was 4.5 nM.
For `CCCCc1cc(-c2ccccc2)cc(-c2ccccc2)[n+]1-c1ccc(S(=O)(=O)Nc2nnc(S(N)(=O)=O)s2)cc1` [Compound 84, 1-N-[5-Sulfamoyl-1,3,4-thiadiazol-2-yl-(aminosulfonyl-4-phenyl)]-2-n-butyl-4,6-diphenylpyridinium perchlorate], the Ki was 4.95 nM in series [1] (setting [6]); 3.13 to 5.96 nM in series [1] (setting [10]); 45 nM in series [2] (setting [7]); 8 nM in series [4] (setting [8]); 7 to 12 nM in series [4] (read-out: KI against CA I); 8.4 nM in series [5] (setting [9]). For the same compound, the Ki in series [5] (read-out: KI against CA IV) was 5.2 to 10.3 nM.
As to `CC(C)(C)c1cc(-c2ccccc2)cc(-c2ccccc2)[n+]1-c1ccc(S(=O)(=O)Nc2nnc(S(N)(=O)=O)s2)cc1` [Compound 85, 1-N-[5-Sulfamoyl-1,3,4-thiadiazol-2-yl-(aminosulfonyl-4-phenyl)]-2-tert-butyl-4,6-diphenylpyridinium perchlorate], the inhibitory constant (Ki) in series [1] (setting [6]) was 4.11 nM; in series [1] (setting [10]) it was 3.13 to 5.96 nM; in series [2], 40 to 43 nM; in series [2] (setting [7]) it was 43 nM; in series [4] (setting [8]), 12 nM; in series [4] (read-out: KI against CA I), 7 to 12 nM. Moreover, the inhibition constant (Ki) in series [5] (setting [9]) is 7 nM; in series [5] (read-out: KI against CA IV), 5.2 to 10.3 nM.
Take `NS(=O)(=O)c1nnc(NS(=O)(=O)c2ccc(-[n+]3c(-c4ccccc4)cc(-c4ccccc4)cc3-c3ccccc3)cc2)s1` [Compound 87, 1-N-[5-Sulfamoyl-1,3,4-thiadiazol-2-yl-(aminosulfonyl-4-phenyl)]-2,4,6-triphenyl-pyridinium perchlorate]: the Ki in series [1] (setting [6]) is 5.96 nM; in series [1] (setting [10]) it was 3.13 to 5.96 nM; in series [2], 12 to 35 nM; in series [2] (setting [7]), 12 nM; in series [4] (setting [8]), 5 nM; in series [5] (setting [9]), 5.6 nM. In addition, the Ki in series [5] (read-out: KI against CA IV) lay within 5.2 to 10.3 nM.
With `NS(=O)(=O)c1nnc(NS(=O)(=O)c2ccc(-[n+]3c(-c4ccccc4)cccc3-c3ccccc3)cc2)s1` [Compound 88, 1-N-[5-Sulfamoyl-1,3,4-thiadiazol-2-yl-(aminosulfonyl-4-phenyl)]-2,6-diphenylpyridinium perchlorate], the Ki is 4.93 nM in series [1] (setting [6]); 3.13 to 5.96 nM in series [1] (setting [10]); 12 to 35 nM in series [2]; 16 nM in series [2] (setting [7]); 5 nM in series [4] (setting [8]); 5.4 nM in series [5] (setting [9]). In addition, in series [5] (read-out: KI against CA IV), the Ki is 5.2 to 10.3 nM.
Turning to `Cc1c(-c2ccccc2)cc(C)[n+](-c2ccc(S(=O)(=O)Nc3nnc(S(N)(=O)=O)s3)cc2)c1C` [Compound 90], the Ki in series [1] (setting [6]) was 1.24 nM; in series [2] (setting [11]), 12 to 35 nM; in series [2] (setting [7]) it was 15 nM; in series [4] (setting [8]), 3 nM; in series [5] (setting [9]), 5.2 nM; in series [5] (read-out: KI against CA IV) it was 5.2 to 10.3 nM.
